Measurements published in patent US20190364895A1, “ANTIMICROBIAL COMPOUNDS OR PRECURSORS THEREOF COMRPISING ONE OR MORE CATIONIC CENTERS AND A COATING-INCORPORATION GROUP” (Exigence Technologies Inc., priority 2016, published 2019).

Test system: E. coli (ATCC 25922)
Assay: Biocidal activity of coated hard-substrates, ISO 22196 methodology
Type: cell-based
Conditions: 5% FBS and MH Broth
Procedure: Tables 27 to 35 summarize the biocidal activity of the coated hard-substrates as assessed using the ISO 22196 methodology. Briefly, control and chlorinated samples of the coated hard-substrates (chlorinated at 200 ppm for 10 minutes) were challenged with E. coli (ATCC 25922). Using a pipette, 200 μL of test inoculum were transferred at a concentration of 1-2×10^6 CFU/mL (in sterile DI water, 5% fetal bovine serum or 100% Mueller-Hinton broth) onto a 50 mm×50 mm plastic test surface in a sterile petri dish. The test inoculum was covered with a piece of PET (polyethylene terephthalate) film that measured 40 mm×40 mm. A slight pressure was applied to the film so that the test inoculum spread to the edges. The test inoculum was kept within the edges of the film and was capped with the lid of the petri dish. Contact times for the samples were 10, 30 and 60 minutes. Then the samples were quenched with 10 mL of sterile 0.05 M sodium thiosulfate solution to remove all oxidative chlorine in the petri dish. This quenching step was followed by repetitive washing and 1 minute of sonication. […] The plates were incubated at 37° C. for about 16 hours to about 18 hours, and viable bacterial colonies were recorded for kill kinetics analysis. The logarithm reduction was determined as follows: […]

SMILES	biocidal activity (in words)
CCCC[P+](C)(CCCC[P+](CCCCCCCCCC[N+](C)(CCCN)CCCN)(c1ccccc1)c1ccccc1)c1ccccc1.[Br-].[Br-].[Br-] (centres unmarked) [C4-P—C4-P—C10-BIS-C3-NH2]	poor biocidal activity
CC1(C)CC([N+](C)(C)CCCC[P+](CCCC[P+](CCCC[N+](C)(CCCN)CCCN)(c2ccccc2)c2ccccc2)(c2ccccc2)c2ccccc2)CC(C)(C)N1.[Br-].[Br-].[Br-].[Br-] [PIP—C4-P—C4-P—C4-BIS-C3-NH2]	had biocidal activity
